Measured values taken from patent publication US9096524B2, “Anthelmintic agents and their use” (Intervet International B.V., priority 2009, dated 2015).
Read-outs that look alike come from different tables or passages of the source.

How the values were obtained:
[1] = tested on: Haemonchus contortus larval stage 4, isolate with a resistance to benzimidazoles and ivermectin and anthelmintic-sensitive isolate; experiment: Resistance-breaking activity against Haemonchus contortus L4 in vitro, resistant isolate compared with sensitive isolate; type: cell-based; details: isolate resistant to benzimidazoles and ivermectin vs sensitive isolate
Experimental: Anthelmintic resistance-breaking effects of compounds of this invention were tested in vitro using larval stage 4 (“L4”) of the parasitic nematode species Haemonchus contortus (Barber's pole worm in ruminants). One isolate of Haemonchus contortus with a resistance to benzimidazoles and ivermectin was tested in comparison to the anthelmintic-sensitive isolate of Haemonchus contortus. When conducting these experiments, various concentrations of the compounds were incubated in 96-well microtiter plates. Parasites were then distributed at 20 larvae per well. The anthelmintic effects were classified by microscopic examination. The microscopic examination included assessing mortality, damage, motility, progression of development, and neutral red uptake by the larvae in comparison to a DMSO-control and standard anthelmintics. The anthelmintic effects were defined by the minimum effective concentration (“MEC”).

[2] = tested on: Haemonchus contortus; experiment: Efficacy against Haemonchus contortus in jirds; type: in vivo, jirds (Meriones unguiculatus); details: 72 h, read-out: % Reduction in H.
Experimental: Anthelmintic effects of compounds of this invention were tested in vivo using Haemonchus contuortus in jirds (Meriones unguiculatus). The jirds were orally infected with approximately 750-3,000 third-stage larvae of Haemonchus contortus. Ten days after infection, the jirds in the treatment groups were treated once orally or subcutaneously at a dose of 2, 10, and/or 50 mg per kg bodyweight. Three days after treatment, the jirds were necropsied, and the larvae burden in the stomach is determined. The efficacy is defined as the reduction of the mean larvae count in the jirds of the treatment groups in comparison to the infected jirds in the untreated negative control group.

[3] = tested on: A. galli (intestinal roundworm of chicken) larval stage 3; O. dentatum (nodular worm of swine) larval stages 3 and 4; experiment: Activity against Ascaridia galli and Oesophagostomum dentatum larvae in vitro (minimum effective concentration); type: cell-based
[4] = tested on: Haemonchus contortus; experiment: Efficacy against Haemonchus contortus in sheep; type: in vivo; details: oral, single treatment, worm burden in abomasum 7 days after treatment
Experimental: Anthelmintic effects of compounds of this invention were tested in vivo using Haemonchus contortus in sheep. The sheep were orally infected with approximately 5,000 third-stage larvae of Haemonchus contortus. Thirty-five days after infection, the sheep in the treatment groups were treated once orally at a dose of 2, 5, 10, and/or 50 mg per kg bodyweight. Seven days after treatment, the sheep were necropsied, and the worm burden in the abomasum was determined. The efficacy was defined as the reduction of the mean worm count in the infected sheep of the treatment groups in comparison to the infected sheep in the untreated negative control group.

[5] = read-out: MEC (minimum effective concentration) against one or more of the tested nematodes, in vitro, one or more of A. galli L3, O. dentatum L3, L4, threshold 1 μM
[6] = read-out: MEC (minimum effective concentration) against one or more of the tested nematodes, in vitro, one or more of A. galli L3, O. dentatum L3, L4, threshold 7 μM
[7] = read-out: MEC (minimum effective concentration) against two or more of the tested nematodes, in vitro, two or more of A. galli L3, O. dentatum L3, L4, threshold 1 μM

Structure (SMILES)	activity (MEC) against the resistant versus the sensitive isolate of Haemonchus contortus [1]	inhibition in vivo at 50 mg/kg ([2]; po)	inhibition in vivo at 50 mg/kg ([2]; sc)	minimal effective concentration [3, 5]	minimal effective concentration [3, 6]	minimal effective concentration [3, 7]	inhibition in vivo at 10 mg/kg ([2]; po)	inhibition in vivo at 10 mg/kg ([2]; sc)	% Reduction in H. ([4]; 10 mg/kg)	% Reduction in H. ([4]; 50 mg/kg)
O=C(CCN1CCC(c2ccc(Oc3ccccc3)cc2)CC1)N1CCC(Oc2ccc([N+](=O)[O-])c(C(F)(F)F)c2)CC1 [Example 45, 1-[4-(4-nitro-3-trifluoromethyl-phenoxy)-piperidin-1-yl]-3-[4-(4-phenoxy-phenyl)-piperidin-1-yl]-propan-1-one]	the same activity against the resistant and the sensitive isolate	94%	94%	–	–	–	–	–	–	–
O=C(CCCN1CCN(c2ccc(C(F)(F)F)cc2)CC1)N1CCC(Nc2ccc(SC(F)(F)F)cc2)CC1 [Example 48, 4-[4-(4-trifluoromethyl-phenyl)-piperazin-1-yl]-1-[4-(4-trifluoromethylsulfanyl-phenylamino)-piperidin-1-yl]-butan-1-one]	the same activity against the resistant and the sensitive isolate	–	–	< 1 µM	< 7 µM	< 1 µM	99%	92%	–	–
CC(CN1CCN(c2ccc(C(F)(F)F)cc2)CC1)C(=O)N1CCC(Nc2ccc([N+](=O)[O-])c(C(F)(F)F)c2)CC1 (stereo not shown) [Example 64, 2-methyl-1-[4-(4-nitro-3-trifluoromethyl-phenylamino)-piperidin-1-yl]-3-[4-(4-trifluoromethyl-phenyl)-piperazin-1-yl]-propan-1-one]	the same activity against the resistant and the sensitive isolate	100%	100%	< 1 µM	< 7 µM	< 1 µM	–	–	75%	–
N#Cc1ccc(NC2CCN(C(=O)CCN3CCN(c4ccc(Cl)cc4)CC3)CC2)cc1C(F)(F)F [Example 325]	the same activity against the resistant and the sensitive isolate	92%	97%	–	–	< 1 µM	–	–	–	96%
CC(CN1CCN(c2ccc(Cl)cc2)CC1)C(=O)N1CCC(Nc2ccc([N+](=O)[O-])c(C(F)(F)F)c2)CC1 (stereo not shown) [Example 61, 3-[4-(4-chloro-phenyl)-piperazin-1-yl]-2-methyl-1-[4-(4-nitro-3-trifluoromethyl-phenylamino)-piperidin-1-yl]-propan-1-one]	–	100%	100%	< 1 µM	< 7 µM	< 1 µM	–	–	–	–
O=C(CCN1CCC(c2ccc(C(F)(F)F)cc2)CC1)N1CCC(Nc2ccc([N+](=O)[O-])c(C(F)(F)F)c2)CC1 [Example 14, 1-[4-(4-nitro-3-trifluoromethyl-phenylamino)-piperidin-1-yl]-3-[4-(4-trifluoromethyl-phenyl)-piperidin-1-yl]-propan-1-one]	–	87%	99%	< 1 µM	< 7 µM	< 1 µM	–	–	–	–
